Patent publication US3956333A, “1(Or 3)-perfluoroalkyl-3,4-dihydro-2(1H)-isoquinolinecarbonitriles” (Sterling Drug Inc., priority 1975, dated 1976)
≈ marks a conversion by molar mass, not a printed value.

What was measured:
[1] = test system: Platelet aggregation induced by collagen; conditions: Oryctolagus cuniculus, read-out: % Inhibition of platelet aggregation induced by collagen
[2] = test system: Platelet aggregation induced by ADP; conditions: Oryctolagus cuniculus, read-out: % Inhibition of platelet aggregation induced by ADP
[3] = test system: Staphylococcus aureus; assay: Antibacterial activity, standard serial dilution technique (MIC); type: cell-based; conditions: read-out: minimal (bacteriostatic) inhibitory concentration (MIC)
Text: The antibacterial activities for the compounds of formulas I and II and the compound of formula V where R is pentafluoroethyl were established using standard serial dilution techniques as described by Goss and Cimijotti, Applied Microbiology 16, 1414 (1968).

[4] = test system: platelet aggregate (thrombus); assay: In vivo inhibition of platelet aggregation, modified extracorporeal shunt technique (thrombus deposit weight); parameters: species or system New Zealand rabbits; conditions: single dose, 3 hours after medication; for % Inhibition of platelet aggregation (in vivo): P < 0.0005; for x Deposit Weight ± s.d.: mean
Text: The antithrombotic or platelet aggregation inhibitory effect of the compounds of formulas I and II was further determined by a modified extracorporeal shunt technique in rabbits. Rowntree and Shinoya [J. Exp. Med. 46, 7 (1927)] described a method of extracorporeal circulation for the observation of thrombus formation. Downie et al. [Circulation Res. 12, 441 (1963)] modified this technique in order to study the effects of various chemicals upon the platelet aggregates formed in such a system. The following procedure, a further modification of said technique, was used to determine the antithrombotic activity of the compounds of the invention.
New Zealand rabbits weighing 1.5 to 3.0 kg. each were used for these studies. All animals were dosed orally by stomach tube with the test compound at a given time, e.g., 3, 8, 12, 24, etc. hours, prior to testing the blood samples. Control animals (from 3 to 5 in number for each dose level of compound) were given the vehicle used for solubilizing the compounds tested. All animals were anesthetized with sodium pentobarbital (Pentobrocanal) intravenously, 25-32 mg./kg., and secured to a dissecting board. The right femoral artery was cannulated and connected to a Statham pressure transducer (P 23AC) for continuously measuring arterial blood pressure which was recorded by means of a Grass (Model 7) polygraph.
A longitudinal incision was made in the midcervical region. The jugular vein and the carotid artery on one side were isolated and cannulated with appropriate size catheters filled with saline solution, which were in turn connected via Y-shaped polypropylene connectors establishing the shunt.
The components of the shunt were thoroughly siliconized except for the Y-connector on the arterial side. This connector is weighed prior to running the experiment. A blood sample was withdrawn from the femoral artery to provide a control platelet count. The animal was allowed 10-12 minutes to attain a relatively stable blood pressure level after which the shunt was opened and the blood permitted to flow. The time from the first appearance of blood, in the arterial catheter until its re-entry into the body, via the venous catheter, was measured and recorded, as flow time, which was used to determine the initial rate of flow.
The shunt remained open for a period of twenty minutes. One minute before the end, the femoral catheter was removed from the transducer and a second blood sample was taken. Duplicate platelet counts were made for each sample of blood. The shunt was removed from the animal by pulling out both catheters, arterial and venous, arterial first. The Y-connectors were washed with 10 cc. of saline solution. The arterial Y-connector was separated and dried in an oven overnight at 40°C., then reweighed. The initial weight of the connector was subtracted from the final weight, and the difference is considered to be the mass of the platelet aggregate (thrombus).
(single dose medication), the blood samples having been tested three hours after medication: […]

**Q.** `NC(=NO)N1CCc2ccccc2C1C(F)(F)C(F)(F)C(F)(F)F` (stereo not shown) [Example 2E] was tested. Which inhibition at 1000 µM [1] did it give?
**A.** Its inhibition at 1000 µM is 94.2%.

**Q.** What about the inhibition at 1000 µM [2] of the same molecule?
**A.** Its inhibition at 1000 µM is 8.3%.

**Q.** What does the source list for `NC(=NO)N1Cc2ccccc2CC1C(F)(F)F` (stereo not shown) [Example 3E]?
**A.** inhibition at 300 µM [1]: 67.4%; inhibition at 3000 µM [2]: 64.4%

**Q.** How did the MIC [3] turn out when `FC(F)(F)C(F)(F)C1NCCc2ccccc21` (stereo not shown) [1,2,3,4-tetrahydro-1-(pentafluoroethyl)isoquinoline] was run?
**A.** Its MIC is ~500 µg/mL (≈ 1990 µM).

**Q.** `Cl.NC(=NO)N1CCc2ccccc2C1C(F)(F)C(F)(F)F` (stereo not shown) [Example 1E] was tested. Which inhibition at 100 µM [1] did it give?
**A.** The inhibition at 100 µM was 24.3%.

**Q.** And the “% Inhibition of platelet aggregation (in vivo)” value (from here on “% Inhibition”) ([4]; 10 mg/kg oral)?
**A.** The value was 17%.

**Q.** What about the “x Deposit Weight ± s.d.” value ([4]; 10 mg/kg oral) of the same molecule?
**A.** The value was 1.54 ± 0.09.

**Q.** And the “% Inhibition” value ([4]; 25 mg/kg oral)?
**A.** Its value is 38%.

**Q.** What about the “x Deposit Weight ± s.d.” value ([4]; 25 mg/kg oral) of the same molecule?
**A.** Its value is 1.16 ± 0.05.

**Q.** And the “% Inhibition” value ([4]; 50 mg/kg oral)?
**A.** Its value is 41%.

**Q.** And the “x Deposit Weight ± s.d.” value ([4]; 50 mg/kg oral)?
**A.** Its value is 1.08 ± 0.08.

**Q.** And the inhibition at 3000 µM [2]?
**A.** The inhibition at 3000 µM was 74.2%.
